Data on one compound can be found in patent US20250032425A1, “FIRST IN CLASS USE OF ESTROGEN RECEPTOR BETA AGONISTS IN TREATING ANGELMAN SYNDROME AND RELEVANT AUTISM SPECTRUM DISORDERS” (BROWN UNIVERSITY, priority 2023, published 2025).

“Also recorded” adds a separate entry of the source.

Assay [1] has as its system AS iOPCs (UBE3A truncation mutation). Put plainly: Proliferation of AS patient-derived iOPCs (EdU, Ki67). In kind it is cell-based, human. Particulars: 10 μM, 24 hours, vs vehicle. An excerpt: FIGS. 25A-25I depict the role of UBE3A via ESR-β signaling on OPC proliferation and oligodendrocyte differentiation. FIG. 25A: qPCR to evaluate the differentiation and maturation for myelination of iOPCs after persistent UBE3A knockdown, by measuring mRNA transcripts of UBE3A and myelination markers MBP and PLP1 in iOPCs treated with siNC or siUBE3A and differentiated in vitro. MBP and PLP1 mRNA expression decreased in iOLs treated with siUBE3A. n=3 independent experiments. FIG. 25B: In vitro myelination assays analyzed the effect of persistent UBE3A knockdown on iOPCs differentiation and maturation in nano-fiber-based cultures, with immunofluorescent staining of MBP (magenta) and DAPI (blue) and imaging of nano-fibers (grey). Quantification by the area (left graph) and density (right graph) of MBP fluorescent signals (normalized to siNC=1.0). MBP area and intensity decreased in cells treated with siUBE3A. n=3 experiments. Scale bar: 25 μm. […] Protein levels of ESR-β in UBE3A-deficient iOPCs and subsequently differentiated iOLs were quantified, normalized against the loading control GAPDH, and expressed relative to the iOPC+siNC control condition (set at 1.0). […] Levels of Ki67 and Myelin Associated Glycoprotein (MAG) were measured in UBE3A-deficient iOPCs and iOLs differentiated from them, normalized against GAPDH, and compared to the iOPC+siNC condition. n=4 experiments. […]

For assay [2], the system named is iOPCs treated with siUBE3A. Put plainly: EdU nuclear incorporation in iOPCs treated with siUBE3A. In kind it is cell-based, human. Particulars: siUBE3A plus AC-186 at 10 μM for 24 hours. The procedure:
The siRNAs targeting UBE3A (Thermo Fisher, #4390815 and #4390816), estrogen receptors (Thermo Scientific #145909 for ESRβ, #145539 for ESRα, and #4390824 for GPER), and negative control (Thermo Scientific, #AM4615) were obtained commercially. The 10-20 nM final concentration was used with Lipofectamine RNAiMAX transfection reagent (Thermo Scientific #13778075) and incubated for at least 48 hours before the treatments of therapeutic compounds or other reagents.
The EdU labeling kit from ThermoFisher Scientific (#C10637) was used to trace cell proliferation by incubating iOPCs with 2 μM EdU for three hours before fixation. Following EdU incorporation, cells were fixed in 4% paraformaldehyde, blocked with normal serum, and stained with primary antibodies, Rabbit anti-Ki67 and Mouse anti-UBE3A. These steps were conducted according to the manual of the labeling kit and also detailed immunofluorescence staining protocols described below, to ensure specific detection of the proliferation marker Ki67 and the ubiquitin-protein ligase UBE3A in the cells for subsequent imaging analysis.
For immunofluorescence with fixed cells in vitro, cultured cells were fixed in 4% PFA for 15 min at 37° C. followed by 0.25% TritonX-100 in PBS for 10 min at RT. Cells were blocked with 2% normal goat/donkey serum in PBS for 1 hour at RT. […]

With `Oc1ccc(C2(c3ccccc3F)CCC(F)(F)CC2)cc1` [AC-186], the “ratio of EdU positive iOPCs (proliferation)” value in assay [1] (AS iOPCs) was “significantly enhanced the proliferation; also recorded: increased”. In assay [1] (AS-derived OPCs), the Ki67 expression result was “increased Ki67 expression”. For the same compound, the EdU staining entry in assay [2] was “increased EdU staining”.
